# Patent US20240109865A1, “INDAZOLE COMPOUNDS AS KINASE INHIBITORS” (TYRA BIOSCIENCES, INC., priority 2020, published 2024)
# Assays:
# [1] = biological target: FGFR3-BAIAP2L1 Ba/F3 cells (Homo sapiens, UniProt P22607); assay: Ba/F3 cell viability assay (CellTiter-Glo 2.0), FGFR3-BAIAP2L1 Ba/F3; type: cell-based; settings: for Ba/F3 FGFR1/FGFR3 Selectivity: FGFR3 > FGFR1 selectivity ratio in Ba/F3 FGFR fusion cell based assays; for IC50: read-out: Ba/F3 Cells FGFR3 (IC50 nM), FGFR3-BAIAP2L1 Ba/F3 cells, 48 hours, Cell Titer Glo 2.0
# How it was run: (§1)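 Viability read as ATP luminescence (CellTiter-Glo 2.0) after 48 h compound exposure, normalized to DMSO-treated cells and fitted with a 4-parameter curve for IC50. Cells: Ba/F3 dependent on FGFR1-BCR or FGFR3-BAIAP2L1 fusion kinase; top dose 30 μM, 10-fold steps, 9 doses in triplicate.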
# FGFR1-BCR Ba/F3 cells = FGFR1-BCR Ba/F3 cells (Homo sapiens, UniProt P11362); assay: Ba/F3 cell viability assay (CellTiter-Glo 2.0), FGFR1-BCR Ba/F3; type: cell-based; settings: read-out: Ba/F3 Cells FGFR1 (IC50 nM), 48 hours, Cell Titer Glo 2.0
# How it was run: as §1
# [2] = test system: RT112/84 cells (FGFR3-fusion); assay: RT112/84 cancer cell line cell viability assay (CellTiter-Glo 2.0); type: cell-based; settings: Homo sapiens, 72 hours, Cell Titer Glo 2.0
# How it was run: (§2)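 Viability was measured as cellular ATP by CellTiter-Glo 2.0 luminescence after 72 h compound exposure, using nine 10-fold doses from 30 μM, in triplicate. Cells were plated at 10,000/well in RPMI1640 with 10% FBS the day before dosing. Signal was expressed as % of DMSO-treated control, and IC50 came from a 4-parameter fit.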
# [3] = test system: UM-UC-14 cells (FGFR3(S249C)); assay: UM-UC-14 cancer cell line cell viability assay (CellTiter-Glo 2.0); type: cell-based; settings: UMUC14, 72 hours, Cell Titer Glo 2.0
# How it was run: as §2
# [4] = test system: KG-1 cells (FGFR1-fusion); assay: KG-1 cancer cell line cell viability assay (CellTiter-Glo 2.0); type: cell-based; settings: Homo sapiens, 72 hours, Cell Titer Glo 2.0
# How it was run: as §2
# FGFR1 = FGFR1 (Homo sapiens (Human), UniProt P11362); assay: Kinase assay, binding constants (Kd), kinase-tagged T7 phage, qPCR
# How it was run: (§3)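 Using T7 phage lysates from BL21-derived E. coli, compounds at 0.9% final DMSO competed for kinase binding to ligand-bearing magnetic beads. After elution, qPCR measured remaining kinase, and Kds were fitted by non-linear least squares with the Hill slope fixed at −1.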
# FGFR2 = FGFR2 (Homo sapiens (Human), UniProt P21802); assay: as above
# How it was run: as §3
# FGFR3 = FGFR3 (Homo sapiens (Human), UniProt P22607); assay: as above
# How it was run: as §3
# FGFR3 (V555M) = FGFR3 (V555M) (Homo sapiens (Human), UniProt P22607, V555M); assay: as above; settings: V555M mutant
# How it was run: as §3
# FGFR4 = FGFR4 (Homo sapiens (Human), UniProt P22455); assay: as above
# How it was run: as §3
# FGFR4, sequence (P22455 22-802): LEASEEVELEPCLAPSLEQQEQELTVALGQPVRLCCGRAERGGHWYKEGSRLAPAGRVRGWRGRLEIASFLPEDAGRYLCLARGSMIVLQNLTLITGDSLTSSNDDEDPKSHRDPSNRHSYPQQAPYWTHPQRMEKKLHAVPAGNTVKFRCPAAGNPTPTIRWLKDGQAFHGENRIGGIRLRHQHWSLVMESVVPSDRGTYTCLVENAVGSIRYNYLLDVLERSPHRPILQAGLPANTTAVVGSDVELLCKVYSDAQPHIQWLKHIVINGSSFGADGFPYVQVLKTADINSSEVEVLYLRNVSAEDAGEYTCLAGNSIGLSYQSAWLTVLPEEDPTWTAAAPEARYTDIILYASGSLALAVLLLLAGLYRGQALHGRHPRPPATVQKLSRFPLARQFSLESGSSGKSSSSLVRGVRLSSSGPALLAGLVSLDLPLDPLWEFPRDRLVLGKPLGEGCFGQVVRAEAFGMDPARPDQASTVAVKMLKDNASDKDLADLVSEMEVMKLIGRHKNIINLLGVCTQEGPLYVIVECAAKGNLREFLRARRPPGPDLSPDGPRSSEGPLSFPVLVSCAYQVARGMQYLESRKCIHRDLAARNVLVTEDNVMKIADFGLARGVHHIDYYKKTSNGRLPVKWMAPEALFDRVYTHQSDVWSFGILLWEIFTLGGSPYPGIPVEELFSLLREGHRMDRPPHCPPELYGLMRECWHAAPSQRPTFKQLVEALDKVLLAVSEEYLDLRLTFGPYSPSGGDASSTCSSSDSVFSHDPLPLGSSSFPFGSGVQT
# FGFR2, sequence (P21802 22-821): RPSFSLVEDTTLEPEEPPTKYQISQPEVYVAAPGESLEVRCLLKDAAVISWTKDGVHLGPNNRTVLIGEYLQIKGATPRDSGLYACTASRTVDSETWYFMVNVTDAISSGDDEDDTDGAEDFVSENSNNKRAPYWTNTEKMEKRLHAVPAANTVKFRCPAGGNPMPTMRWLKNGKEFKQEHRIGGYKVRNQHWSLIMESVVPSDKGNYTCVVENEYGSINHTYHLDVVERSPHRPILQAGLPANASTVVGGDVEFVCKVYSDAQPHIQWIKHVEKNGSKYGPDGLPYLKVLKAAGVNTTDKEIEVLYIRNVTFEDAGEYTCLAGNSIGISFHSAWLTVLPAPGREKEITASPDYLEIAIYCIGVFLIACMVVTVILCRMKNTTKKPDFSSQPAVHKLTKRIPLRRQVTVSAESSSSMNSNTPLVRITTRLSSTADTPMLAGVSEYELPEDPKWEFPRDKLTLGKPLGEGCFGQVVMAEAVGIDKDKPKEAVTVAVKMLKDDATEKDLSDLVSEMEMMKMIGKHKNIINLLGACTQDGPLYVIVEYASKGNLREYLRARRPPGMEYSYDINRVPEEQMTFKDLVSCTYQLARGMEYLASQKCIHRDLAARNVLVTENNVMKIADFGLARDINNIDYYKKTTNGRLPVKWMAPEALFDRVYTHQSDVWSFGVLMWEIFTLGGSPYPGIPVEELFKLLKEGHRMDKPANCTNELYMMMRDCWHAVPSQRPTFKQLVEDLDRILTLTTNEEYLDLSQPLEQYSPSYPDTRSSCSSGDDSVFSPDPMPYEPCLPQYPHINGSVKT
# FGFR1-BCR Ba/F3 cells, sequence (P11362 22-822 limits assumed, change not shown): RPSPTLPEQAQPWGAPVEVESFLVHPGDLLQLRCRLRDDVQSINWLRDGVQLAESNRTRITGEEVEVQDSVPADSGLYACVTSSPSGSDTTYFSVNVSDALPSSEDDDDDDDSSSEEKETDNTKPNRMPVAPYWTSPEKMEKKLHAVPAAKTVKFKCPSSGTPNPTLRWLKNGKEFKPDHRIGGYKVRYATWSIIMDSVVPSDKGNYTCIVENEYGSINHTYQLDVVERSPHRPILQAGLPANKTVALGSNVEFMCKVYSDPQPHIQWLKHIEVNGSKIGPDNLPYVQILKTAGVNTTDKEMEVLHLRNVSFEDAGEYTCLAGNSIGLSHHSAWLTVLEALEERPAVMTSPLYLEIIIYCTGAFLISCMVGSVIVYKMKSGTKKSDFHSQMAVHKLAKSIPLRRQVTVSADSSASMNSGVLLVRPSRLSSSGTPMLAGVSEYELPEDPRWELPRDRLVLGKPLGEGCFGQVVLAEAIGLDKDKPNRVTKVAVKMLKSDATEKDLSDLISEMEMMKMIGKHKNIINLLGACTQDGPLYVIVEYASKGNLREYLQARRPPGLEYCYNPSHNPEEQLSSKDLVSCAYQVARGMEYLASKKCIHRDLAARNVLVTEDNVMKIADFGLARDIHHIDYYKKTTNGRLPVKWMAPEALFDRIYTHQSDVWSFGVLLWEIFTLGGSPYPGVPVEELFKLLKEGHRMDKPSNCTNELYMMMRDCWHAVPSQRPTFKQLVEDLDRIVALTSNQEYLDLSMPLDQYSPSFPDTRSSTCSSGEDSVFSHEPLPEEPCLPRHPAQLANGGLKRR
# FGFR1, sequence (P11362 22-822): as the sequence (P11362 22-822 limits assumed, change not shown) above
# FGFR3 (V555M), sequence (P22607 23-806 V555M): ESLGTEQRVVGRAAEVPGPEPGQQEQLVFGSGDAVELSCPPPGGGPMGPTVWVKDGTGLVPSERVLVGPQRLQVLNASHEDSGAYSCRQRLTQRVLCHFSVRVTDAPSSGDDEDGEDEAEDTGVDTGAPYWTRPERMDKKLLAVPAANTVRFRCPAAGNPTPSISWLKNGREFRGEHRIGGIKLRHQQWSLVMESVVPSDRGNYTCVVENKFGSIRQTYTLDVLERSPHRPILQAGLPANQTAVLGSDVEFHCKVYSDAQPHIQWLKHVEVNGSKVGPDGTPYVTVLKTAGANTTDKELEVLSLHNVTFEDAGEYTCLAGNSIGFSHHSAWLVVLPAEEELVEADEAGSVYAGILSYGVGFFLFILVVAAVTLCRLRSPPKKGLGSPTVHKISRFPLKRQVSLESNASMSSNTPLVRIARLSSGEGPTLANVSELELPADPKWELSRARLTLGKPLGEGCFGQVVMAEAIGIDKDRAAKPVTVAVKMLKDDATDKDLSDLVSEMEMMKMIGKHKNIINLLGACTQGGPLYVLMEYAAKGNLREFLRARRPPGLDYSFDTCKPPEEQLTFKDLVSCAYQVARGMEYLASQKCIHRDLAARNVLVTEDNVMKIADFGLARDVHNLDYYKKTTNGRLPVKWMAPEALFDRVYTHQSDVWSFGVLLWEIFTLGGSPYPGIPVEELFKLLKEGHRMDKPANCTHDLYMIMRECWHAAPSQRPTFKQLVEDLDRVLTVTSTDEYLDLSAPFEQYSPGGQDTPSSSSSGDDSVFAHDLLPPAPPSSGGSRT
# FGFR3-BAIAP2L1 Ba/F3 cells, sequence (P22607 23-806 limits assumed, change not shown): as the sequence (P22607 23-806 V555M) above, with M533V counted along it
# FGFR3, sequence (P22607 23-806): as the sequence (P22607 23-806 V555M) above, with M533V counted along it
structure (smiles),measurement,setting,value
"C[C@@H](Oc1ccc2[nH]nc(-c3ccc(N4CC5(C4)CN(S(C)(=O)=O)C5)nc3)c2c1)c1c(Cl)cncc1Cl [Example 46, 5-[(1R)-1-(3,5-dichloro-4-pyridyl)ethoxy]-3-[6-(2-methylsulfonyl-2,6-diazaspiro[3.3]heptan-6-yl)-3-pyridyl]-1H-indazole]",Ba/F3 FGFR1/FGFR3 Selectivity,[1],14
same,IC50,[1],1 to 20 nM
same,IC50,FGFR1-BCR Ba/F3 cells,20 to 100 nM
same,IC50,[2],1 to 20 nM
same,IC50,[3],1 to 20 nM
same,IC50,[4],20 to 100 nM
same,Kd,FGFR1,1 to 20 nM
same,Kd,FGFR2,1 to 20 nM
same,Kd,FGFR3,1 to 20 nM
same,Kd,FGFR3 (V555M),1 to 20 nM
same,Kd,FGFR4,1 to 20 nM
"C[C@@H](Oc1ccc2[nH]nc(-c3ccc(N4CC5(CN(C(=O)N(C)C)C5)C4)nc3)c2c1)c1c(Cl)cncc1Cl [Example 47, 6-[5-[5-[(1R)-1-(3,5-dichloro-4-pyridyl)ethoxy]-1H-indazol-3-yl]-2-pyridyl]-N,N-dimethyl-2,6-diazaspiro[3.3]heptane-2-carboxamide]",Ba/F3 FGFR1/FGFR3 Selectivity,[1],21
same,IC50,[1],1 to 20 nM
same,IC50,FGFR1-BCR Ba/F3 cells,100 to 300 nM
same,IC50,[2],1 to 20 nM
same,IC50,[3],1 to 20 nM
same,IC50,[4],100 to 300 nM
same,Kd,FGFR1,1 to 20 nM
same,Kd,FGFR2,1 to 20 nM
same,Kd,FGFR3,1 to 20 nM
same,Kd,FGFR3 (V555M),1 to 20 nM
same,Kd,FGFR4,1 to 20 nM
"C[C@@H](Oc1ccc2[nH]nc(-c3cnc(N4CCC5(CCC(=O)N5)CC4)nc3)c2c1)c1c(Cl)cncc1Cl [Example 48, 8-[5-[5-[(1R)-1-(3,5-dichloro-4-pyridyl)ethoxy]-1H-indazol-3-yl]pyrimidin-2-yl]-1,8-diazaspiro[4.5]decan-2-one]",Ba/F3 FGFR1/FGFR3 Selectivity,[1],8
same,IC50,[1],20 to 100 nM
same,IC50,FGFR1-BCR Ba/F3 cells,100 to 300 nM
same,IC50,[2],20 to 100 nM
same,IC50,[3],20 to 100 nM
same,IC50,[4],100 to 300 nM
same,Kd,FGFR1,20 to 100 nM
same,Kd,FGFR2,20 to 100 nM
same,Kd,FGFR3,1 to 20 nM
same,Kd,FGFR3 (V555M),1 to 20 nM
same,Kd,FGFR4,1 to 20 nM
"C[C@@H](Oc1ccc2[nH]nc(-c3cnc(N4CCC5(CC4)CNC(=O)C5)nc3)c2c1)c1c(Cl)cncc1Cl [Example 49, 8-[5-[5-[(1R)-1-(3,5-dichloro-4-pyridyl)ethoxy]-1H-indazol-3-yl]pyrimidin-2-yl]-2,8-diazaspiro[4.5]decan-3-one]",Ba/F3 FGFR1/FGFR3 Selectivity,[1],10
same,IC50,[1],1 to 20 nM
same,IC50,FGFR1-BCR Ba/F3 cells,100 to 300 nM
same,IC50,[2],20 to 100 nM
same,IC50,[3],20 to 100 nM
same,IC50,[4],100 to 300 nM
same,Kd,FGFR1,20 to 100 nM
same,Kd,FGFR2,20 to 100 nM
same,Kd,FGFR3,1 to 20 nM
same,Kd,FGFR3 (V555M),1 to 20 nM
same,Kd,FGFR4,1 to 20 nM
"C[C@@H](Oc1ccc2[nH]nc(-c3cnc(N4CCC5(CCN(C)C5=O)CC4)nc3)c2c1)c1c(Cl)cncc1Cl [Example 51, 8-[5-[5-[(1R)-1-(3,5-dichloro-4-pyridyl)ethoxy]-1H-indazol-3-yl]pyrimidin-2-yl]-2-methyl-2,8-diazaspiro[4.5]decan-1-one]",Ba/F3 FGFR1/FGFR3 Selectivity,[1],7
same,IC50,[1],20 to 100 nM
same,IC50,FGFR1-BCR Ba/F3 cells,100 to 300 nM
same,IC50,[2],20 to 100 nM
same,IC50,[3],20 to 100 nM
same,IC50,[4],100 to 300 nM
same,Kd,FGFR1,20 to 100 nM
same,Kd,FGFR2,20 to 100 nM
same,Kd,FGFR3,1 to 20 nM
same,Kd,FGFR3 (V555M),1 to 20 nM
same,Kd,FGFR4,1 to 20 nM
"C[C@@H](Oc1ccc2[nH]nc(-c3cnc(N4CCC5(CCCN5C)CC4)nc3)c2c1)c1c(Cl)cncc1Cl [Example 52, 8-[5-[5-[(1R)-1-(3,5-dichloro-4-pyridyl)ethoxy]-1H-indazol-3-yl]pyrimidin-2-yl]-1-methyl-1,8-diazaspiro[4.5]decane]",Ba/F3 FGFR1/FGFR3 Selectivity,[1],7
same,IC50,[1],20 to 100 nM
same,IC50,FGFR1-BCR Ba/F3 cells,100 to 300 nM
same,IC50,[2],20 to 100 nM
same,IC50,[3],20 to 100 nM
same,IC50,[4],20 to 100 nM
same,Kd,FGFR1,1 to 20 nM
same,Kd,FGFR2,20 to 100 nM
same,Kd,FGFR3,1 to 20 nM
same,Kd,FGFR3 (V555M),1 to 20 nM
same,Kd,FGFR4,1 to 20 nM
"C[C@@H](Oc1ccc2[nH]nc(-c3cnc(N4CCC5(CCC(=O)N5C)CC4)nc3)c2c1)c1c(Cl)cncc1Cl [Example 54, 8-[5-[5-[(1R)-1-(3,5-dichloro-4-pyridyl)ethoxy]-1H-indazol-3-yl]pyrimidin-2-yl]-1-methyl-1,8-diazaspiro[4.5]decan-2-one]",Ba/F3 FGFR1/FGFR3 Selectivity,[1],13
same,IC50,[1],1 to 20 nM
same,IC50,FGFR1-BCR Ba/F3 cells,100 to 300 nM
same,IC50,[2],1 to 20 nM
same,IC50,[3],1 to 20 nM
same,IC50,[4],100 to 300 nM
same,Kd,FGFR1,1 to 20 nM
same,Kd,FGFR2,1 to 20 nM
same,Kd,FGFR3,1 to 20 nM
same,Kd,FGFR3 (V555M),1 to 20 nM
same,Kd,FGFR4,1 to 20 nM
"C[C@@H](Oc1ccc2[nH]nc(-c3cnc(N4CCCN(C5COC5)CC4)nc3)c2c1)c1c(Cl)cncc1Cl [Example 60, 5-[(1R)-1-(3,5-Dichloro-4-pyridyl)ethoxy]-3-[2-[4-(oxetan-3-yl)-1,4-diazepan-1-yl]pyrimidin-5-yl]-1H-indazole]",Ba/F3 FGFR1/FGFR3 Selectivity,[1],13
same,IC50,[1],1 to 20 nM
same,IC50,FGFR1-BCR Ba/F3 cells,100 to 300 nM
same,IC50,[2],20 to 100 nM
same,IC50,[3],20 to 100 nM
same,IC50,[4],100 to 300 nM
same,Kd,FGFR1,1 to 20 nM
same,Kd,FGFR2,1 to 20 nM
same,Kd,FGFR3,1 to 20 nM
same,Kd,FGFR3 (V555M),1 to 20 nM
same,Kd,FGFR4,1 to 20 nM
"Cc1cncc(C)c1[C@@H](C)Oc1ccc2[nH]nc(-c3ccc(N4CC5(C4)CN(S(C)(=O)=O)C5)nc3)c2c1 [Example 139, 5-[(1R)-1-(3,5-dimethyl-4-pyridyl)ethoxy]-3-[6-(2-methylsulfonyl-2,6-diazaspiro[3.3]heptan-6-yl)-3-pyridyl]-1H-indazole]",Ba/F3 FGFR1/FGFR3 Selectivity,[1],14
same,IC50,[1],20 to 100 nM
same,IC50,FGFR1-BCR Ba/F3 cells,100 to 300 nM
same,IC50,[2],1 to 20 nM
same,IC50,[3],1 to 20 nM
same,IC50,[4],100 to 300 nM
same,Kd,FGFR1,20 to 100 nM
same,Kd,FGFR2,1 to 20 nM
same,Kd,FGFR3,1 to 20 nM
same,Kd,FGFR3 (V555M),1 to 20 nM
same,Kd,FGFR4,1 to 20 nM
"CCOC(=O)N1CC2(C1)CN(c1ccc(-c3n[nH]c4ccc(O[C@H](C)c5c(C)cnnc5C)cc34)cn1)C2 [Example 142, ethyl 6-[5-[5-[(1R)-1-(3,5-dimethylpyridazin-4-yl)ethoxy]-1H-indazol-3-yl]-2-pyridyl]-2,6-diazaspiro[3.3]heptane-2-carboxylate]",Ba/F3 FGFR1/FGFR3 Selectivity,[1],25
same,IC50,[1],1 to 20 nM
same,IC50,FGFR1-BCR Ba/F3 cells,100 to 300 nM
same,IC50,[2],20 to 100 nM
same,IC50,[3],1 to 20 nM
same,IC50,[4],100 to 300 nM
same,Kd,FGFR1,20 to 100 nM
same,Kd,FGFR2,1 to 20 nM
same,Kd,FGFR3,1 to 20 nM
same,Kd,FGFR3 (V555M),1 to 20 nM
same,Kd,FGFR4,1 to 20 nM
"C[C@@H](Oc1ccc2[nH]nc(-c3ccc(N4CC5(CCCS(=O)(=O)C5)C4)nc3)c2c1)c1c(Cl)cncc1Cl [Example 159, 2-[5-[5-[(1R)-1-(3,5-dichloro-4-pyridyl)ethoxy]-1H-indazol-3-yl]-2-pyridyl]-6λ^6-thia-2-azaspiro[3.5]nonane 6,6-dioxide]",Ba/F3 FGFR1/FGFR3 Selectivity,[1],16
same,IC50,[1],1 to 20 nM
same,IC50,FGFR1-BCR Ba/F3 cells,20 to 100 nM
same,IC50,[2],1 to 20 nM
same,IC50,[3],20 to 100 nM
same,IC50,[4],1 to 20 nM
same,Kd,FGFR1,1 to 20 nM
same,Kd,FGFR2,1 to 20 nM
same,Kd,FGFR3,1 to 20 nM
same,Kd,FGFR3 (V555M),1 to 20 nM
same,Kd,FGFR4,1 to 20 nM
